Assays:
[1] = biological target: T1, cGMP-dependent protein kinase 2 (Homo sapiens) (UniProt Q13237); details: at 10 µM
T1 sequence (whole entry): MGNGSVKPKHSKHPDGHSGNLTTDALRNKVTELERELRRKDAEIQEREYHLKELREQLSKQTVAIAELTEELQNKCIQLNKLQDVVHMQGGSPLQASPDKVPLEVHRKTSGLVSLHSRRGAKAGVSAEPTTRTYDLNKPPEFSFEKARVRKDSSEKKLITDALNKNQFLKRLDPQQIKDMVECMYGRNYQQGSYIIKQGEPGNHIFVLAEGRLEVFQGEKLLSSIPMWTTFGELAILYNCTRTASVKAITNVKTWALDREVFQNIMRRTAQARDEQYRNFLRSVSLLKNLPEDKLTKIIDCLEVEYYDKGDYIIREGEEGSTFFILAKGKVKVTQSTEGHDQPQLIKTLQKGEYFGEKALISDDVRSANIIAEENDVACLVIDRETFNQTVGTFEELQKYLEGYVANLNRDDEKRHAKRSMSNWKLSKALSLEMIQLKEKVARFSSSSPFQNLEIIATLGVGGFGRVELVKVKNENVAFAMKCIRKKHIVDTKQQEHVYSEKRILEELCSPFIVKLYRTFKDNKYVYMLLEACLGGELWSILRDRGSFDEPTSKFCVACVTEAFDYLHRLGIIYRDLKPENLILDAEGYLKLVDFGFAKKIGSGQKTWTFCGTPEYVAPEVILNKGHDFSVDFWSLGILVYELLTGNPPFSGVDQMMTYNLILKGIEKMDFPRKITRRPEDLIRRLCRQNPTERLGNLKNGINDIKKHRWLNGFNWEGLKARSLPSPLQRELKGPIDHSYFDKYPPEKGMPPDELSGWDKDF

[2] = biological target: Insulin-like growth factor 1 receptor (Homo sapiens, UniProt P08069); experiment: Selectivity interaction (Kinase screening (Nanosyn)) EUB0000604a IGF1R
[3] = biological target: T2, Inhibitor of nuclear factor kappa-B kinase subunit epsilon (Homo sapiens) (UniProt Q14164); experiment: Selectivity interaction (KinomeScan (DiscoverX)) EUB0001049a IKBKE; details: at 1 µM
T2 sequence (whole entry): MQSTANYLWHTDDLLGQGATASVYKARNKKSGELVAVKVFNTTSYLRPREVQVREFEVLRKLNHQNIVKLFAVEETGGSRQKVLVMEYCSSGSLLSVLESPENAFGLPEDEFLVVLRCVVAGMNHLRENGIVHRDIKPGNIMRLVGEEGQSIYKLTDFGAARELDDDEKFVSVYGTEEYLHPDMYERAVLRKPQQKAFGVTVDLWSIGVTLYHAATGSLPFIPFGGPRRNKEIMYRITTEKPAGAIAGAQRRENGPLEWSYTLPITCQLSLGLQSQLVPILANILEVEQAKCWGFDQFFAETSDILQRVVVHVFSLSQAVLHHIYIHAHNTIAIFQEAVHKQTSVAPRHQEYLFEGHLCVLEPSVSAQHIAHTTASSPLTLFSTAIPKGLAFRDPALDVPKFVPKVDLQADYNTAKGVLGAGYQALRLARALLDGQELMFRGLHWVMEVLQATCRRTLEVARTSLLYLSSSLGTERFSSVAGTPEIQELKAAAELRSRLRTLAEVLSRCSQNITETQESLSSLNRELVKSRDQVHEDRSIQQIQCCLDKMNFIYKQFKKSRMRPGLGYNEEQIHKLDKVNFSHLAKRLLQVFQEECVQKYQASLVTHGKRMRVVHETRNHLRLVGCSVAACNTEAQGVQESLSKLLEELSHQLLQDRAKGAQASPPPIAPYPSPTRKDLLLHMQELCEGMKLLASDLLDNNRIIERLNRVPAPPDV

[4] = biological target: Phosphatidylinositol 4-kinase beta (Homo sapiens, UniProt Q9UBF8); experiment: Selectivity interaction (ActivX KiNativ screen (kinase selectivity in THP-1 cell lysates)) EUB0000639a PI4KB; type: subcellular; details: lysate, at 0.01 µM
[5] = biological target: Receptor-type tyrosine-protein kinase FLT3 (Homo sapiens) (UniProt P36888); experiment: Selectivity interaction (KinomeScan (DiscoverX)) EUB0000695a FLT3; details: at 100 nM
[6] = biological target: T3, Ribosomal protein S6 kinase alpha-6 (Homo sapiens, UniProt Q9UK32); experiment: Selectivity interaction (KinomeScan (DiscoverX)) EUB0000595a RPS6KA6; details: at 10 µM
[7] = biological target: Serine/threonine-protein kinase pim-3 (Homo sapiens) (UniProt Q86V86); experiment: Selectivity interaction (KinomeScan (DiscoverX)) EUB0001079a PIM3; details: at 1 µM
[8] = biological target: Serine/threonine-protein kinase 25 (Homo sapiens) (UniProt O00506); experiment: Selectivity interaction (ProQinase) EUB0000171b STK25
[9] = biological target: T4, Dual specificity mitogen-activated protein kinase kinase 6 (Homo sapiens) (UniProt P52564); experiment: Selectivity interaction (KinomeScan (DiscoverX)) EUB0000607a MAP2K6; details: at 10 µM
T4 sequence (whole entry): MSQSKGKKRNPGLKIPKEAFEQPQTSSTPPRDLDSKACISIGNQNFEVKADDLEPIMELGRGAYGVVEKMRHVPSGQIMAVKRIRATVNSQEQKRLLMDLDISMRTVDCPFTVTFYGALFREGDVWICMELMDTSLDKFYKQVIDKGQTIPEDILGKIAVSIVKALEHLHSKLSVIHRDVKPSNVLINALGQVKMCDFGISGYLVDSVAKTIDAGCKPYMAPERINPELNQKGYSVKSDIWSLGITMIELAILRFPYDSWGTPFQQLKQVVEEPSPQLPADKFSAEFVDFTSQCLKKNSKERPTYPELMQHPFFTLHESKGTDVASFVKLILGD

[10] = biological target: Cyclin-dependent kinase 3 (Homo sapiens) (UniProt Q00526); experiment: Selectivity interaction (KinomeScan (DiscoverX)) EUB0000666a CDK3; details: at 10 µM
[11] = biological target: T3, Ribosomal protein S6 kinase alpha-6; experiment: Selectivity interaction (KinomeScan (DiscoverX)) EUB0000666a RPS6KA6; details: at 10 µM
[12] = biological target: T5, Muscarinic acetylcholine receptor M2 (Homo sapiens) (UniProt P08172); experiment: Selectivity interaction (Panel of kinases, GPCRs, ion channels and transporters (enzymatic assay)) EUB0000223bCl CHRM2
T5 sequence (whole entry): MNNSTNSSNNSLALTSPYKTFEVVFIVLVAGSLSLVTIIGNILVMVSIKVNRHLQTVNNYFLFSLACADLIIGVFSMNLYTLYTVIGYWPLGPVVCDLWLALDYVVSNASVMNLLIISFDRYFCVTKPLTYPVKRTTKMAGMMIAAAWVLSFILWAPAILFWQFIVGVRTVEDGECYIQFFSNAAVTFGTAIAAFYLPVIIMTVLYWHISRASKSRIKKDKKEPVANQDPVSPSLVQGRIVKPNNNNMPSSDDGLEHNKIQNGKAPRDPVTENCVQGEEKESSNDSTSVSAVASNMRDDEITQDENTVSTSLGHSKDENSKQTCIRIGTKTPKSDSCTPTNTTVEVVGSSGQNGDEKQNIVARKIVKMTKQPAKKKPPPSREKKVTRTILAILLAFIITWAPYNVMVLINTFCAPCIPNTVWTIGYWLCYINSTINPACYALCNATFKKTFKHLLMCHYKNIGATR

T3 sequence (Q9UK32 whole entry): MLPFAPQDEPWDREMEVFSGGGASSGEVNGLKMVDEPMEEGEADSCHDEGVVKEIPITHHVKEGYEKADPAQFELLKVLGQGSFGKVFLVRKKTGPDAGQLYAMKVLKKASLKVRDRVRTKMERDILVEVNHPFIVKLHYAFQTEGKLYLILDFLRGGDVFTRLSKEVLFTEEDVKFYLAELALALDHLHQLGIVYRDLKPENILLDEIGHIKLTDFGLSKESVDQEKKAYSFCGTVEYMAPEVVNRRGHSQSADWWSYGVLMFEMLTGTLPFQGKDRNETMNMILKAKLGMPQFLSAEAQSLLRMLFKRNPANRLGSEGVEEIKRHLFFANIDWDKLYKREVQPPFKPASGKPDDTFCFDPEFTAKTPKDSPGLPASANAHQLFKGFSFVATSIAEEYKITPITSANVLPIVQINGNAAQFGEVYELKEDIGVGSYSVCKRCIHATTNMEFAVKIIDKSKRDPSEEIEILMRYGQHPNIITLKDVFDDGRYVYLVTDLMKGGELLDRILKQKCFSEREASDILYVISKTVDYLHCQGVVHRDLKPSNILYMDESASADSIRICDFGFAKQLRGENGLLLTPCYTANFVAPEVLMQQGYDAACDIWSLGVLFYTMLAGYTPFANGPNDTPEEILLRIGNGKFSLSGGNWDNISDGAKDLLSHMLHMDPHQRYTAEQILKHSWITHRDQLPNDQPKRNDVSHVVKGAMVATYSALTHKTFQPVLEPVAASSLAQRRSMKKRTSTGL
Sequence of Serine/threonine-protein kinase 25 (Homo sapiens) (O00506 whole entry, looked up): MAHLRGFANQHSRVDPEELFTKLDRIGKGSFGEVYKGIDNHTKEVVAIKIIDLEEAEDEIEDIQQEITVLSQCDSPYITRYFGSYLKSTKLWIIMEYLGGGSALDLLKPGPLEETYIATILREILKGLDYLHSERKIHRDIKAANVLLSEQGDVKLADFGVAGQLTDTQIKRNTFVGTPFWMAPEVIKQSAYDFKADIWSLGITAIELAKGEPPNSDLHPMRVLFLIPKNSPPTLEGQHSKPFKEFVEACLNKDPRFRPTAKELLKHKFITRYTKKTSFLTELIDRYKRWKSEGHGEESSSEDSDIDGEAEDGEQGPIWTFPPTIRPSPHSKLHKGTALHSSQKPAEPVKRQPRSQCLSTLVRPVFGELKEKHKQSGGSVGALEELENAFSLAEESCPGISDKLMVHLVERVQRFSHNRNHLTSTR
Sequence of Cyclin-dependent kinase 3 (Homo sapiens) (Q00526 whole entry, looked up): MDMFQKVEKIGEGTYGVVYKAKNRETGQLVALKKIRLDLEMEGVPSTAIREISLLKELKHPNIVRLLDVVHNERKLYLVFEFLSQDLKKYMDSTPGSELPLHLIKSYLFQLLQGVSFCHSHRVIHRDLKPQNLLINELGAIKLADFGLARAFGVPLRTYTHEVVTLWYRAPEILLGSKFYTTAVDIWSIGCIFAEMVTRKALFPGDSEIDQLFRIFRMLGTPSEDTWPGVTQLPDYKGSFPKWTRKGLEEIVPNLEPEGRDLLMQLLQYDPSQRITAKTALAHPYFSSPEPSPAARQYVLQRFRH
Sequence of Receptor-type tyrosine-protein kinase FLT3 (Homo sapiens) (P36888 whole entry): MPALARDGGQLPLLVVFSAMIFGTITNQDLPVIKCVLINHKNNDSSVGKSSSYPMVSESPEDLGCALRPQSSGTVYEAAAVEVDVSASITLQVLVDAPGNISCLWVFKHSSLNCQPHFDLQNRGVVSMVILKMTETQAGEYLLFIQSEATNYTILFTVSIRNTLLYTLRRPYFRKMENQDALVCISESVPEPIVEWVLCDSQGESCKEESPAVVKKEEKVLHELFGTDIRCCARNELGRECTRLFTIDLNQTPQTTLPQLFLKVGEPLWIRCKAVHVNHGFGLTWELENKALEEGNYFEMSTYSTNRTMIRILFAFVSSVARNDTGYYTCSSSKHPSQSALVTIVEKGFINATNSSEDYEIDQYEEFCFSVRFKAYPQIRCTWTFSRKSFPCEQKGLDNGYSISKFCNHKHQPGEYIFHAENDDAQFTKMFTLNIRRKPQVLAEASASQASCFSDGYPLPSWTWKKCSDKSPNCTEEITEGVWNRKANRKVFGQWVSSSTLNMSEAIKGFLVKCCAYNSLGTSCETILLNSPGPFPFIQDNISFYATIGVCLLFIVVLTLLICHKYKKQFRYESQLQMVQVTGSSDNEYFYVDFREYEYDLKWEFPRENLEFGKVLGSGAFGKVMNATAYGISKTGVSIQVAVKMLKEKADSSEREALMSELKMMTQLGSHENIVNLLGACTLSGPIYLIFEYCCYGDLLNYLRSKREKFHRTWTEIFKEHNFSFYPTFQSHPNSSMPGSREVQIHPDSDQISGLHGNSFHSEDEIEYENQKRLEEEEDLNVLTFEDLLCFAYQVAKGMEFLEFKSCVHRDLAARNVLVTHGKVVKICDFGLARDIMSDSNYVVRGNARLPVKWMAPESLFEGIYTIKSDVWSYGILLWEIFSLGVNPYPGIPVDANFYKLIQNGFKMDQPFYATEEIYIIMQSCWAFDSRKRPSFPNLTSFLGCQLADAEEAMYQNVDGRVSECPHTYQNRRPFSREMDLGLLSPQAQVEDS
Sequence of Phosphatidylinositol 4-kinase beta (Q9UBF8 2-816 limits assumed): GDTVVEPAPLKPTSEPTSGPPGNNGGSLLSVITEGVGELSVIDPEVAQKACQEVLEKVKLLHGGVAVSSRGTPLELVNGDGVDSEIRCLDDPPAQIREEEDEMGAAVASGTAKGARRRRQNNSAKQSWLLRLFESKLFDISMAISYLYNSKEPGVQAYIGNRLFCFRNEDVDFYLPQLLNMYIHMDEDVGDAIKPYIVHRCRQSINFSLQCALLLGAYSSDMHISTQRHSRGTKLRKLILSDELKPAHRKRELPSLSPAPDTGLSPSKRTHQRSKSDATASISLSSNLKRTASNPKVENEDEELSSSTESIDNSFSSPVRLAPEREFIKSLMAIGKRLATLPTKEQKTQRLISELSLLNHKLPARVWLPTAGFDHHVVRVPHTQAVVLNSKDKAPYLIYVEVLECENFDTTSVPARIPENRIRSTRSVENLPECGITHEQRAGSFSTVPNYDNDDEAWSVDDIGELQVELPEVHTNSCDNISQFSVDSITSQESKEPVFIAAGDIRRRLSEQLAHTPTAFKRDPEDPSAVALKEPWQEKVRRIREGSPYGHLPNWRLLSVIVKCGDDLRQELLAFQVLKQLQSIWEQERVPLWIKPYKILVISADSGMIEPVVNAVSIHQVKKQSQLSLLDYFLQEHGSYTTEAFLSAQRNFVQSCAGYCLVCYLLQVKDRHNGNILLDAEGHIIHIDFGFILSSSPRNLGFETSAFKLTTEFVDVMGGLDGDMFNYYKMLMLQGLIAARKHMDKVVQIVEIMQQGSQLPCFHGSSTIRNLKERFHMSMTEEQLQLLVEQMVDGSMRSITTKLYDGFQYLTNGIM
Sequence of Insulin-like growth factor 1 receptor (P08069 31-736 limits assumed): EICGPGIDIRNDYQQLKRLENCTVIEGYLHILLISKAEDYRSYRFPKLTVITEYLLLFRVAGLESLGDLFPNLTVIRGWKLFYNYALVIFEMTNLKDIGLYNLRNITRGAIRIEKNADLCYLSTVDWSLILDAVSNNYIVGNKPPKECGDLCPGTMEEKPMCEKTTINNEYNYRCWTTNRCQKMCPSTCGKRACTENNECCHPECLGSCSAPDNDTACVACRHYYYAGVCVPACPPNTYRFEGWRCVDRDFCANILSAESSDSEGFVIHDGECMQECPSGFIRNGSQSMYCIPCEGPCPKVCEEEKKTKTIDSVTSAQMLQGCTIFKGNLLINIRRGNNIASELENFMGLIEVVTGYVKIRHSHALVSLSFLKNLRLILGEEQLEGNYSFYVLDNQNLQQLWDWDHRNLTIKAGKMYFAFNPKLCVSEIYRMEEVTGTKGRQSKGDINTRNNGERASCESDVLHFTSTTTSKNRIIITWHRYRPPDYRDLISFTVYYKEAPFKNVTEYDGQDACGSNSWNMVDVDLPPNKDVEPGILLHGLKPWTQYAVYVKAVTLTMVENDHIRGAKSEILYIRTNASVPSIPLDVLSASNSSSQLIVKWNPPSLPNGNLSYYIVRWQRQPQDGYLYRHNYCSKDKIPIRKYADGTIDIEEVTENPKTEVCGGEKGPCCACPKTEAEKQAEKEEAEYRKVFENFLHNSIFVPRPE
Sequence of Insulin-like growth factor 1 receptor (P08069 741-1367 limits assumed): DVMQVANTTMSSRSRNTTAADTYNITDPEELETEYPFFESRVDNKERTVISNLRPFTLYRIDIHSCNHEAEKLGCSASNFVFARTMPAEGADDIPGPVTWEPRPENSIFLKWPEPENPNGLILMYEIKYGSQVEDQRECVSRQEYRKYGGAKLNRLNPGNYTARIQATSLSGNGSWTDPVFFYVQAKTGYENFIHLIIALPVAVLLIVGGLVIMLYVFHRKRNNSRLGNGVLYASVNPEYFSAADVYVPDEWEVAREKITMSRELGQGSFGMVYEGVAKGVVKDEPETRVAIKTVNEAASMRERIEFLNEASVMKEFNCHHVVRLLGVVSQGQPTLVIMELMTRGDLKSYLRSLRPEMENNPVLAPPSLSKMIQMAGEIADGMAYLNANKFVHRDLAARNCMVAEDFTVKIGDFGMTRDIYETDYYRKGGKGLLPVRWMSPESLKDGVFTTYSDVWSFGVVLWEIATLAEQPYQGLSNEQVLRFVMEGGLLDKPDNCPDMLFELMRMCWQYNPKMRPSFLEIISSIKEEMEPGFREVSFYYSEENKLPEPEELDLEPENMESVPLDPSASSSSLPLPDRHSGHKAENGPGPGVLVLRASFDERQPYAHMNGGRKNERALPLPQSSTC

With `Cc1cc([C@@H](C)Nc2ccccc2C(=O)O)c2nc(N3CCOCC3)cc(=O)n2c1` [AZD-6482] as the molecule, how does the % of control [1] read?
Its % of control is 98%.

For `Cc1cnc(Nc2ccc(F)cc2Cl)nc1-c1c[nH]c(C(=O)N[C@H](CO)c2cccc(Cl)c2)c1`, which % of inhibition [2] is on record?
The % of inhibition was 2%.

Which % of control [3] does the source give for `COc1cc(Nc2nc(C)cc(-c3cnn4nc(OC)ccc34)n2)cc(C(F)(F)F)c1` here?
The % of control was 83%.

For `CC[C@@H]1[C@H](F)C(=O)N[C@@H]1COc1nccc2cc(C(N)=O)c(OC)cc12` [ZIMLOVISERTIB], which % of inhibition [4] is on record?
The % of inhibition was 1.7%.

How did the % of control [5] turn out when `Cc1cc(F)c(C(=O)Nc2cccc(-c3nncn3C(C)C)n2)cc1-n1cnc(C2CC2)c1` was run?
The % of control was 100%.

With `COCC(=O)NC/C=C/c1ccc2ncnc(Nc3ccc(Oc4ccc(C)nc4)c(C)c3)c2c1` [CP-724714] as the molecule, how does the % of control [6] read?
Its % of control is 96%.

For `Nc1cnc(N2CCc3cc(S(=O)(=O)Nc4c(F)cc(Cl)cc4F)cc(N4CCCC4=O)c32)nc1` [TP-020n], which % of control [7] is on record?
Its % of control is 98%.

Which % of control ([8]; at 1 µM) does the source give for `C=CC(=O)Nc1cccc(C(=O)Nc2ccc(Nc3cc(-c4[nH]c(SC)nc4C)ccn3)cc2)c1` here?
The % of control was 88%.

What about the % of control ([8]; at 5 µM) of the same molecule?
Its % of control is 95%.

`CNC(=O)Nc1ccc(-c2nc(N3CC4CCC(C3)O4)c3cnn(C4CCC5(CC4)OCCO5)c3n2)cc1` was tested. Which % of control [9] did it give?
Its % of control is 95%.

What does the source list for `O=C(NOC[C@H](O)CO)c1ccc(F)c(F)c1Nc1ccc(I)cc1F`?
% of control [10]: 69%; % of control [11]: 75%

Which pXC50 [12] does the source give for `COc1cc(C(=O)N2CC[C@@H](O)[C@@H](N)C2)cc2nc(-c3cc4ccccc4n3CC3CC3)n(C)c12` here?
Its pXC50 is < 4.8 M.

— ChEMBL document CHEMBL5465560, “Selectivity Literature for EUbOPEN Chemogenomic Library” (2024)
